Results as given in US20240287138A1, “CYCLIC PEPTIDES FOR INHIBITING TNF RECEPTOR 1 ACTIVITY” (Merck Sharp & Dohme LLC, priority 2023, published 2024).
Where two headings read alike, the source gives them in different places. Numbered stars: 1 amine (or outer) side, 2 acyl side, 3 side chain; on linkers, the order of the positions; unused ones are H or OH. Bridge positions count the residues as written; N and C are the ends. Square brackets hold non-standard residues; d marks the D form. Peptide text beside a SMILES is read from it. Trp(βS-Me,7-OMe) = COc1cccc2c([C@H](C)[C@H](N)C(=O)O)c[nH]c12; Morpholine(3S-CO,6,6-Me2) = CC1(C)CN[C@H](C(=O)O)CO1; Trp(7-Cl) = N[C@@H](Cc1c[nH]c2c(Cl)cccc12)C(=O)O; Phe(3-COOH) = N[C@@H](Cc1cccc(C(=O)O)c1)C(=O)O; Phe(4-CONH2) = NC(=O)c1ccc(C[C@H](N)C(=O)O)cc1; Phe(4-COOH) = N[C@@H](Cc1ccc(C(=O)O)cc1)C(=O)O; Trp(7-aza) = N[C@@H](Cc1c[nH]c2ncccc12)C(=O)O; Phe(4-CH2NH2) = NCc1ccc(C[C@H](N)C(=O)O)cc1; 3Pal(6-OMe) = COc1ccc(C[C@H](N)C(=O)O)cn1; Pip(5R-OH) = O=C(O)[C@@H]1CC[C@@H](O)CN1; X13 = O=C([C@H]1CC[C@@H](N[*:1])C1)[*:2]; X1 = O=C([C@@H]1CC[C@H](N[*:1])C1)[*:2]; Ala(2-furyl) = N[C@@H](Cc1ccco1)C(=O)O; Dap(CONH2) = NC(=O)NC[C@H](N)C(=O)O; Lys(Me2) = CN(C)CCCC[C@H](N)C(=O)O; Val(3-OH) = CC(C)(O)[C@H](N)C(=O)O; Pip(4-aza) = O=C(O)[C@@H]1CNCCN1; 4Pal = N[C@@H](Cc1ccncc1)C(=O)O; NMeE = CN[C@@H](CCC(=O)O)C(=O)O; X33 = N#CCCN(CC(=O)[*:2])[*:1]; X39 = C[C@H](C(=O)[*:1])[*:2]; Pip = O=C(O)[C@@H]1CCCCN1; αMeS = C[C@](N)(CO)C(=O)O; Nle = CCCC[C@H](N)C(=O)O; Sar = CNCC(=O)O

Experiments:
[1] = target: T1, human soluble TNFR1 (sTNFR1) (Homo sapiens, UniProt P19438); assay: Human sTNFR1-peptide displacement assay (LanthaScreen Eu TR-FRET binding assay)
T1 construct: made in house; host or cells: Sf21 (baculovirus)
T1 sequence (P19438 with tags, fused parts or gaps): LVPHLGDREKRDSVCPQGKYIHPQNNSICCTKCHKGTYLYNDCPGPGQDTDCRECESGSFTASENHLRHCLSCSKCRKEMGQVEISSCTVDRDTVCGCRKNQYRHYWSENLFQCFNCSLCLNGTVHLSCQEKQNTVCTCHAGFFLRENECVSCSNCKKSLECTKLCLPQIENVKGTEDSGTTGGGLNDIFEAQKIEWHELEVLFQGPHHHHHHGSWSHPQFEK
In short: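 Readout is the 665/615 nm TR-FRET ratio (Eu anti-His donor, streptavidin-Alexa647 acceptor), normalized to DMSO and saturating displacer, fit by Morrison-based five-parameter logistic for Kd^app. His-tagged sTNFR1 (1-211) prebound to 100 nM biotinylated peptide SEQ ID NO.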

[2] = target: T2, TNFα-induced NF-κB signal transduction pathway (TNFR1 signaling) in THP-1 cells (Homo sapiens, UniProt P19438); assay: THP-1 Lucia NF-κB reporter cell assay, inhibition of TNFα-induced NF-κB signaling; type: cell-based; settings: THP-1 NF-κB Lucia reporter cells, 10 ng/mL TNFα, 16-18 h, secreted luciferase; read-out: THP-1 IC50
T2 sequence (P19438 30-455): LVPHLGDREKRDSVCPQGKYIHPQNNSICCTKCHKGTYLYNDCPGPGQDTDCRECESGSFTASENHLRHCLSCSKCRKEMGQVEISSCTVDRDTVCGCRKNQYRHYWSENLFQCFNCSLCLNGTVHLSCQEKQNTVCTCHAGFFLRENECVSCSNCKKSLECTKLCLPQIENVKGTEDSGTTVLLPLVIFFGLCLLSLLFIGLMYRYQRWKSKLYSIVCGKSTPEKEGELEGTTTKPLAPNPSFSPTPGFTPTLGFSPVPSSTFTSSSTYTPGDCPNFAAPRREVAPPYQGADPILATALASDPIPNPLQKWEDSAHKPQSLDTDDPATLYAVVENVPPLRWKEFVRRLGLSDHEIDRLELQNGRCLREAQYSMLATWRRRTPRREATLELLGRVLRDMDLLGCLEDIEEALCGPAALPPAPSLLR
In short: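 Inhibition of TNFR1-driven NF-κB activation was measured as luminescence of secreted reporter luciferase following overnight (16-18 h) stimulation with 10 ng/mL TNFα.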

[3] = displacement of biotinylated peptide SEQ ID NO. 1 from sTNFR1, 20 point titration, 5-parameter fit based on Morrison equation (tight binding), read-out: TR-FRET Kd^app
[4] = displacement of biotinylated peptide SEQ ID NO. 1 from sTNFR1, weaker binders, 10 pts titration, 4-parameter logistic model, read-out: TR-FRET, IC50

| Compound | Kd [1, 3] [nM] | IC50 [1, 4] [nM] | IC50 [2] [nM] | IC50 [1] [nM] | Kd [1] [nM] |
| --- | --- | --- | --- | --- | --- |
| CCCC[C@@H]1NC(=O)[C@H]2CC[C@H](C2)NC(=O)[C@H]([C@@H](C)c2c[nH]c3c(OC)cccc23)NC(=O)CN(C)C(=O)[C@H](Cc2ccc(O)cc2)NC(=O)[C@H](Cc2ccc(C(N)=O)cc2)NC(=O)[C@](C)(CO)NC(=O)[C@H](Cc2c[nH]c3c(Cl)cccc23)NC(=O)[C@H](Cc2ccncc2)NC(=O)[C@H](CC(N)=O)NC(=O)[C@H](CCC(=O)O)N(C)C(=O)[C@H](Cc2c[nH]c3ccccc23)NC(=O)[C@@H]2COC(C)(C)CN2C(=O)[C@H](Cc2ccncc2)NC1=O [SEQ ID NO. 214] (cyclo([4Pal][Trp(7-Cl)][αMeS][Phe(4-CONH2)]Y[Sar][Trp(βS-Me,7-OMe)][X13][Nle][4Pal][Morpholine(3S-CO,6,6-Me2)]W[NMeE]N)) | 0.61 | 0.95 | 3.7 |  |  |
| CCCC[C@@H]1NC(=O)CSC[C@@H](C(N)=O)NC(=O)[C@H]([C@@H](C)c2c[nH]c3c(OC)cccc23)NC(=O)CN(C)C(=O)[C@H](Cc2ccc(O)cc2)NC(=O)[C@H](Cc2ccc(C(=O)O)cc2)NC(=O)[C@](C)(CO)NC(=O)[C@H](Cc2c[nH]c3c(Cl)cccc23)NC(=O)[C@H](Cc2ccncc2)NC(=O)[C@H](CC(N)=O)NC(=O)[C@H](CCC(=O)O)N(C)C(=O)[C@H](Cc2c[nH]c3ncccc23)NC(=O)[C@H](C(C)(C)O)NC(=O)[C@H](Cc2c[nH]cn2)NC1=O [SEQ ID NO. 217] ({CH2CO}-[Nle]H[Val(3-OH)][Trp(7-aza)][NMeE]N[4Pal][Trp(7-Cl)][αMeS][Phe(4-COOH)]Y[Sar][Trp(βS-Me,7-OMe)]C-NH2; thioether N-14) |  |  | 4.4 | 1 | 0.73 |
| CCCC[C@@H]1NC(=O)[C@@H]2CC[C@@H](C2)NC(=O)[C@H]([C@@H](C)c2c[nH]c3c(OC)cccc23)NC(=O)CN(C)C(=O)[C@H](Cc2ccc(O)cc2)NC(=O)[C@H](Cc2ccc(C(=O)O)cc2)NC(=O)[C@](C)(CO)NC(=O)[C@H](Cc2c[nH]c3c(Cl)cccc23)NC(=O)[C@H](Cc2ccncc2)NC(=O)[C@H](CNC(N)=O)NC(=O)[C@H](CCC(=O)O)N(C)C(=O)[C@H](Cc2c[nH]c3ccccc23)NC(=O)[C@@H]2CNCCN2C(=O)[C@H](Cc2ccncc2)NC1=O [SEQ ID NO. 225] (cyclo([4Pal][Trp(7-Cl)][αMeS][Phe(4-COOH)]Y[Sar][Trp(βS-Me,7-OMe)][X1][Nle][4Pal][Pip(4-aza)]W[NMeE][Dap(CONH2)])) |  |  | 0.9 |  | 0.27 |
| CCCC[C@@H]1NC(=O)CSC[C@@H](C(N)=O)NC(=O)[C@H]([C@@H](C)c2c[nH]c3c(OC)cccc23)NC(=O)CN(C)C(=O)[C@H](Cc2ccc(O)cc2)NC(=O)[C@H](Cc2ccc(C(=O)O)cc2)NC(=O)[C@](C)(CO)NC(=O)[C@H](Cc2c[nH]c3c(Cl)cccc23)NC(=O)[C@H](Cc2ccncc2)NC(=O)[C@H](CC(N)=O)NC(=O)CN(CCC#N)C(=O)[C@H](Cc2c[nH]c3ncccc23)NC(=O)[C@@H]2CCCCN2C(=O)[C@H](Cc2ccncc2)NC1=O [SEQ ID NO. 228] ({CH2CO}-[Nle][4Pal][Pip][Trp(7-aza)][X33]N[4Pal][Trp(7-Cl)][αMeS][Phe(4-COOH)]Y[Sar][Trp(βS-Me,7-OMe)]C-NH2; thioether N-14) |  |  | 4 | 0.7 | 0.64 |
| CCCC[C@@H]1NC(=O)CSC[C@@H](C(N)=O)NC(=O)[C@H]([C@@H](C)c2c[nH]c3c(OC)cccc23)NC(=O)CN(C)C(=O)[C@H](Cc2ccc(O)cc2)NC(=O)[C@H](Cc2ccc(C(=O)O)cc2)NC(=O)[C@](C)(CO)NC(=O)[C@H](Cc2c[nH]c3c(Cl)cccc23)NC(=O)[C@H](Cc2ccco2)NC(=O)[C@H](CC(N)=O)NC(=O)[C@H]2CCCN2C(=O)[C@H](Cc2c[nH]c3ccccc23)NC(=O)[C@@H]2CNCCN2C(=O)[C@H](Cc2ccncc2)NC1=O [SEQ ID NO. 236] ({CH2CO}-[Nle][4Pal][Pip(4-aza)]W[dP]N[Ala(2-furyl)][Trp(7-Cl)][αMeS][Phe(4-COOH)]Y[Sar][Trp(βS-Me,7-OMe)]C-NH2; thioether N-14) |  |  | 4.2 | 0.9 |  |
| COc1cccc2c([C@H](C)[C@@H]3NC(=O)CN(C)C(=O)[C@H](Cc4ccc(O)cc4)NC(=O)[C@H](Cc4ccc(C(N)=O)cc4)NC(=O)[C@](C)(CO)NC(=O)[C@H](Cc4c[nH]c5c(Cl)cccc45)NC(=O)[C@H](Cc4ccncc4)NC(=O)[C@H](CC(N)=O)NC(=O)[C@H](CCC(=O)O)N(C)C(=O)[C@H](Cc4c[nH]c5ccccc45)NC(=O)[C@@H]4CC[C@@H](O)CN4C(=O)[C@H](Cc4ccncc4)NC(=O)[C@H](CCCCN(C)C)NC(=O)[C@@H]4CC[C@@H](C4)NC3=O)c[nH]c12 [SEQ ID NO. 238] (cyclo([4Pal][Trp(7-Cl)][αMeS][Phe(4-CONH2)]Y[Sar][Trp(βS-Me,7-OMe)][X1][Lys(Me2)][4Pal][Pip(5R-OH)]W[NMeE]N)) |  |  | 0.7 |  | 0.12 |
| CCCC[C@@H]1NC(=O)[C@@H]2CC[C@@H](C2)NC(=O)[C@H]([C@@H](C)c2c[nH]c3c(OC)cccc23)NC(=O)CN(C)C(=O)[C@H](Cc2ccc(O)cc2)NC(=O)[C@H](Cc2ccc(C(=O)O)cc2)NC(=O)[C@](C)(CO)NC(=O)[C@H](Cc2c[nH]c3c(Cl)cccc23)NC(=O)[C@H](Cc2ccncc2)NC(=O)[C@H](CC(N)=O)NC(=O)[C@H](CCC(=O)O)N(C)C(=O)[C@H](Cc2c[nH]c3ccccc23)NC(=O)[C@@H]2CNCCN2C(=O)[C@H](Cc2ccc(OC)nc2)NC1=O [SEQ ID NO. 241] (cyclo([4Pal][Trp(7-Cl)][αMeS][Phe(4-COOH)]Y[Sar][Trp(βS-Me,7-OMe)][X1][Nle][3Pal(6-OMe)][Pip(4-aza)]W[NMeE]N)) |  |  | 1.4 |  | 0.24 |
| CCCC[C@@H]1NC(=O)CSC[C@@H](C(N)=O)NC(=O)[C@H]([C@@H](C)c2c[nH]c3c(OC)cccc23)NC(=O)CN(C)C(=O)[C@H](Cc2ccc(O)cc2)NC(=O)[C@H](Cc2cccc(C(=O)O)c2)NC(=O)[C@](C)(CO)NC(=O)[C@H](Cc2c[nH]c3c(Cl)cccc23)NC(=O)[C@H](Cc2ccncc2)NC(=O)[C@H](CC(N)=O)NC(=O)[C@H](CCC(=O)O)N(C)C(=O)[C@H](Cc2c[nH]c3ccccc23)NC(=O)[C@@H]2CNCCN2C(=O)[C@H](Cc2ccncc2)NC1=O [SEQ ID NO. 249] ({CH2CO}-[Nle][4Pal][Pip(4-aza)]W[NMeE]N[4Pal][Trp(7-Cl)][αMeS][Phe(3-COOH)]Y[Sar][Trp(βS-Me,7-OMe)]C-NH2; thioether N-14) |  |  | 4.4 | 1 |  |
| CCCC[C@@H]1NC(=O)[C@@H](C)SC[C@@H](C(N)=O)NC(=O)[C@H]([C@@H](C)c2c[nH]c3c(OC)cccc23)NC(=O)CN(C)C(=O)[C@H](Cc2ccc(O)cc2)NC(=O)[C@H](Cc2ccc(C(N)=O)cc2)NC(=O)[C@](C)(CO)NC(=O)[C@H](Cc2c[nH]c3c(Cl)cccc23)NC(=O)[C@H](Cc2ccncc2)NC(=O)[C@H](CC(N)=O)NC(=O)[C@H](CCC(=O)O)N(C)C(=O)[C@H](Cc2c[nH]c3ncccc23)NC(=O)[C@H](CO)NC(=O)[C@H](Cc2ccc(CN)cc2)NC1=O [SEQ ID NO. 250] ([Nle][Phe(4-CH2NH2)]S[Trp(7-aza)][NMeE]N[4Pal][Trp(7-Cl)][αMeS][Phe(4-CONH2)]Y[Sar][Trp(βS-Me,7-OMe)]C-NH2; linker N-14 via X39) | 0.17 | 0.27 | 2.4 |  |  |
| CCCC[C@@H]1NC(=O)CSC[C@@H](C(N)=O)NC(=O)[C@H]([C@@H](C)c2c[nH]c3c(OC)cccc23)NC(=O)CN(C)C(=O)[C@H](Cc2ccc(C(=O)O)cc2)NC(=O)[C@H](Cc2ccc(C(=O)O)cc2)NC(=O)[C@](C)(CO)NC(=O)[C@H](Cc2c[nH]c3c(Cl)cccc23)NC(=O)[C@H](Cc2ccncc2)NC(=O)[C@H](CC(N)=O)NC(=O)[C@H](CCC(=O)O)N(C)C(=O)[C@H](Cc2c[nH]c3ccccc23)NC(=O)[C@@H]2CNCCN2C(=O)[C@H](Cc2ccncc2)NC1=O [SEQ ID NO. 251] ({CH2CO}-[Nle][4Pal][Pip(4-aza)]W[NMeE]N[4Pal][Trp(7-Cl)][αMeS][Phe(4-COOH)][Phe(4-COOH)][Sar][Trp(βS-Me,7-OMe)]C-NH2; thioether N-14) |  |  | 2.7 | 0.5 | 1.17 |
